# Results from patent publication US20220183287A1, “METHODS FOR KILLING PESTS” (The United States of America, as represented by the …, priority 2020, published 2022).
# Marks after values point to notes of the source that are not given here.
# Tested on: Heterodera glycines eggs
# Assay: Microwell assay: eggs immersed in compounds, hatch and activity of hatched J2
# Format: in vivo
# Settings: 0.1%; J2 hatched from immersed eggs
# Procedure: (§1) All chemicals were used without further purification.
# (§2) These are reported as 0.1% herein.
# (§3) The nematodes were then incubated at 26° C. […] Two trials were conducted for each assay.
# (§4) The assumptions of the model were checked.
Compound,% Active Day 2,% Active Day 5,% Active Day 7
"CC(C)COC(=O)c1ccccc1 [iBB, iso-Butyl benzoate]",22.4 ^cd %,18.4 ^cde %,13.6 ^bc %
"CCCCCCOC(=O)c1ccccc1 [nHB, n-Hexyl benzoate]",19.1 ^cd %,16.8 ^cde %,14.6 ^bc %
"COC(=O)c1ccccc1Cl [M2CB, Methyl 2-chlorobenzoate]",0 ^e %,6.4 ^de %,0 ^d %
"COC(=O)c1ccccc1OC [M2MOB, Methyl 2-methoxybenzoate]",48.2 ^bc %,43.0 ^abc %,19.1 ^bc %

# Same assay, conditions: 0.1%; by Day 7
row,Compound,inactive J2 that hatched from the eggs [%]
1,"COC(=O)c1ccccc1Cl [M2CB, Methyl 2-chlorobenzoate]",100

# Same assay, conditions: 0.1%; hatched J2 per well, about 35 eggs per well
Compound,Hatch Day 2,Hatch Day 5,Hatch Day 7
"CC(C)COC(=O)c1ccccc1 [iBB, iso-Butyl benzoate]",6.7 ^bcd,7.5 ^bcd,7.3 ^bcd
"CCCCCCOC(=O)c1ccccc1 [nHB, n-Hexyl benzoate]",7.3 ^bcd,7.5 ^bcd,7.6 ^bcd
"COC(=O)c1ccccc1Cl [M2CB, Methyl 2-chlorobenzoate]",5.4 ^cd,5.8 ^cd,5.5 ^cd
"COC(=O)c1ccccc1OC [M2MOB, Methyl 2-methoxybenzoate]",8.7 ^abcd,11.3 ^bc,11.6 ^abc

# Same assay, conditions: Heterodera glycines, 168 h; 0.1%; Day 7; read-out: egg hatch suppression compared with the Tween control
row,Compound,pest or weed control at 0.1 % [%]
1,"COC(=O)c1ccccc1Cl [M2CB, Methyl 2-chlorobenzoate]",64 to 80

# Tested on: M. incognita second-stage juveniles
# Assay: Microwell assay: previously hatched J2 immersed in compounds, activity and viability
# Settings: 0.1%; previously hatched J2 in aqueous solution
# Procedure: Nematode cultures: As described in Meyer et al. (Meyer, S. L. F., et al., Nematropica, 46: 85-96 (2016)), M. incognita race 1 (originally isolated in Maryland) was maintained in a greenhouse (24° to 29° C.; natural and supplemental lighting combined for a 16-h daylength) on susceptible cayenne pepper (Capsicum annuum) TA-136′ plants. All greenhouse experiments described herein were conducted under the same conditions. Two to three months after pepper plant inoculation, egg masses were picked from roots. Eggs were separated by 5 min immersion in 0.6% sodium hypochlorite, followed by a rinse in sterile distilled water (SDW). To collect second-stage juveniles (J2) for microwell assays, the surface-sterilized eggs were placed in a hatching chamber (Spectra/Mesh Nylon Filter, openings 25-μm-diam.; Spectrum Laboratories Inc., Rancho Dominguez, Calif.) set in an autoclaved dish that was placed on a rotary shaker for 3 days at 35 rpm. For some M. incognita and H. glycines assays, 25 or […] kanamycin monosulfate (Phytotechnology Laboratories, Shawnee Mission, Kans.) was added to the hatching chamber to prevent growth of bacteria. The collected J2 were then rinsed with water to remove the kanamycin monosulfate.
# (§5) Compounds for the studies were purchased from three different companies: methyl benzoate, CAS Number 93-58-3, ≥99% purity; Tween 20, CAS Number: 9005-64-5; Tween 80, CAS Number: 9005-65-6; ethyl benzoate, CAS Number: 93-89-0, natural, ≥99% purity, FCC, FG; vinyl benzoate, CAS Number: 769-78-8, ≥99% purity; n-propyl benzoate, CAS Number: 2315-68-6, 99% purity; n-butyl benzoate, CAS Number: 136-60-7, 99% purity; benzyl benzoate, CAS Number: 120-51-4, natural, ≥99% purity, FCC, FG; methyl 2-methylbenzoate, CAS Number: 89-71-4, 99% purity; methyl 2-chlorobenzoate, CAS Number: 610-96-8, ≥98% purity; methyl 2-methoxybenzoate, CAS Number: 606-45-1, 99% purity and methyl 2-nitrobenzoate, CAS Number: 606-27-9, 98% purity were purchased from Sigma-Aldrich (St. Louis, Mo.). Compounds, iso-butyl benzoate, CAS Number 120-50-3, >98% purity; n-pentyl benzoate, CAS Number: 2049-96-9, ≥98% purity; and n-hexyl benzoate, CAS Number: 6789-88-4, ≥98% purity were purchased from Alfa Aesar (Tewksbury, Mass.). The compounds methyl 3-methoxybenzoate (methyl m-anisate), CAS Number: 5368-81-0; 97% and methyl 3-methylbenzoate (methyl m-toluate), CAS Number: 99-36-5, 97% purity were purchased from TCI America (Portland, Oreg.). All chemicals were used without further purification. Deionized water (DI) containing 1% emulsifier (v/v), Tween 20 and Tween 80, at 1:1 ratio was used to make different VOCs (volatile organic compounds) water solutions and also used as blank control.
# (§6) For tests with individual compounds, the concentration of each compound was 0.1% before placement into wells; the final concentration in the wells was 0.095% after addition to eggs or J2 suspended in water. These are reported as 0.1% herein. An exception was Trial 2, M. incognita J2 activity and viability (Table 2): the final concentration was 0.1% after placement in wells. Low concentrations were selected for assays of combined compounds to determine if the combinations would increase nematotoxicity.
# (§7) Laboratory assays were conducted in 96-well polystyrene plates following general procedures described in Wen et al. (2019). Each well received approximately 35 J2 (for previously hatched J2 assays) or 35 eggs that each contained either a first-stage juvenile (J1) or a J2. The plates were covered with plastic adhesive sealing film (Excel Scientific, Inc., Victorville Calif.) and then with the plate lids. Parafilm (Bemis, Neenah, Wis.) was used to seal the plates. The nematodes were then incubated at 26° C. […] Following the counts on Day 2, the treatments were removed and the J2 rinsed twice with SDW and incubated in the second rinse. […] Two trials were conducted for each assay.
Compound,% Active Day 1,% Active Day 2
"CC(C)COC(=O)c1ccccc1 [iBB, iso-Butyl benzoate]",54.8 ^ab %,41.1 ^b %
"CCCCCCOC(=O)c1ccccc1 [nHB, n-Hexyl benzoate]",84.5 ^a %,82.4 ^c %
"COC(=O)c1ccccc1Cl [M2CB, Methyl 2-chlorobenzoate]",0 ^f %,0 ^d %
"COC(=O)c1ccccc1OC [M2MOB, Methyl 2-methoxybenzoate]",5.2 ^de %,5.9 ^c %

# Same assay, conditions: Meloidogyne incognita, 72 h, read-out: % Viable Day 3 rinsed
row,Compound,viability at 0.1 % [%]
1,"CC(C)COC(=O)c1ccccc1 [iBB, iso-Butyl benzoate]",42.9
2,"CCCCCCOC(=O)c1ccccc1 [nHB, n-Hexyl benzoate]",66.3
3,"COC(=O)c1ccccc1Cl [M2CB, Methyl 2-chlorobenzoate]",0
4,"COC(=O)c1ccccc1OC [M2MOB, Methyl 2-methoxybenzoate]",36.8

# Same assay, conditions: Meloidogyne incognita, 72 h, read-out: nonviable (killed) J2
row,Compound,mortality at 0.1 % [%]
1,"CC(C)COC(=O)c1ccccc1 [iBB, iso-Butyl benzoate]",52
2,"COC(=O)c1ccccc1Cl [M2CB, Methyl 2-chlorobenzoate]",100

# Same assay, conditions: in vivo
Compound,% Viable Day 3 rinsed,nonviable (killed) J2
"CCCCCCOC(=O)c1ccccc1 [nHB, n-Hexyl benzoate]",did not have a significant effect,–
"COC(=O)c1ccccc1OC [M2MOB, Methyl 2-methoxybenzoate]",–,killed more than half

# Tested on: H. glycines second-stage juveniles
# Assay: as above
# Settings: 0.1%; Day 3 following water rinse
# Procedure: The isolate of H. glycines race 3, originally isolated in Maryland, was maintained on soybean (Glycine max cv. ‘Essex’). As previously described (Wen, Y., et al. Plant Disease, 103: 2191-2198 (2019)), the roots were gently rubbed in water to dislodge cysts and mature females. The egg suspensions were then poured through nested sieves (#20 over /#60; pore sizes 850 μm and 250 μm diam., respectively) into a 454 g/liter sucrose solution. After 15 min, the cysts and females and cysts that floated to the top were collected, rinsed in water, and crushed with a rubber stopper on a #60 sieve (250-μm diam. pore size) that was partially submerged in distilled water. The egg suspension was washed through nested #230 over #500 sieves (pore sizes 63 μm and 25-μm diam., respectively). The eggs were collected in distilled water, and J2 hatched as described above.
# as §5, §6, §7
# Statistical analyses: The data were analyzed as either a general linear model using JMP or a generalized linear model for the best distribution to fit the residual using Proc Glimmix (Sas Institute). The assumptions of the model were checked. If not met, then appropriate statistical techniques were used so that data could met the assumptions of the models. In Sas, mean comparisons were done with Sidak adjusted p-values to hold the experiment-wise error at 0.05.
row,Compound,reduction in % viable J2 compared with the Tween control [%]
1,"CC(C)COC(=O)c1ccccc1 [iBB, iso-Butyl benzoate]",43
2,"COC(=O)c1ccccc1Cl [M2CB, Methyl 2-chlorobenzoate]",99

# Same assay, conditions: 0.1%; after Day 2 water rinse
row,Compound,% Viable Day 3 rinsed
1,"COC(=O)c1ccccc1OC [M2MOB, Methyl 2-methoxybenzoate]",did not cause significant reductions

# Same assay, conditions: 0.1%; previously hatched J2 in aqueous solution
Compound,% Active Day 1,% Active Day 2
"CC(C)COC(=O)c1ccccc1 [iBB, iso-Butyl benzoate]",55.6 ^c %,45.2 ^cd %
"CCCCCCOC(=O)c1ccccc1 [nHB, n-Hexyl benzoate]",73.2 ^ab %,63.5 ^ab %
"COC(=O)c1ccccc1Cl [M2CB, Methyl 2-chlorobenzoate]",0.46 ^e %,1.6 ^g %
"COC(=O)c1ccccc1OC [M2MOB, Methyl 2-methoxybenzoate]",73.6 ^ab %,66.3 ^ab %

# Same assay, conditions: Heterodera glycines, 72 h, read-out: % Viable Day 3 rinsed
row,Compound,viability at 0.1 % [%]
1,"CC(C)COC(=O)c1ccccc1 [iBB, iso-Butyl benzoate]",34.5
2,"CCCCCCOC(=O)c1ccccc1 [nHB, n-Hexyl benzoate]",46.2
3,"COC(=O)c1ccccc1Cl [M2CB, Methyl 2-chlorobenzoate]",0.5
4,"COC(=O)c1ccccc1OC [M2MOB, Methyl 2-methoxybenzoate]",59.6

# Tested on: M. incognita eggs
# Assay: Microwell assay: eggs immersed in compounds, hatch and activity of hatched J2
# Format: in vivo, Meloidogyne incognita
# Settings: 0.1%; Day 7
# Procedure: as §1, §2, §3, §4
row,Compound,decrease in total hatch compared with the Tween control [%]
1,"COC(=O)c1ccccc1Cl [M2CB, Methyl 2-chlorobenzoate]",~95

# Same assay, conditions: 0.1%; J2 hatched from eggs, 7-day incubation
row,Compound,decrease in % active J2 compared with the Tween control [%]
1,"CC(C)COC(=O)c1ccccc1 [iBB, iso-Butyl benzoate]",60
2,"COC(=O)c1ccccc1OC [M2MOB, Methyl 2-methoxybenzoate]",86

# Same assay, conditions: 0.1%; J2 hatched from immersed eggs
Compound,% Active Day 2,% Active Day 5,% Active Day 7
"CC(C)COC(=O)c1ccccc1 [iBB, iso-Butyl benzoate]",61.2 ^ab %,51.6 ^bc %,38.0 ^b %
"CCCCCCOC(=O)c1ccccc1 [nHB, n-Hexyl benzoate]",73.2 ^ab %,40.5 ^cd %,16.5 ^b %
"COC(=O)c1ccccc1Cl [M2CB, Methyl 2-chlorobenzoate]",0 ^c %,0 e %,0 ^c %
"COC(=O)c1ccccc1OC [M2MOB, Methyl 2-methoxybenzoate]",35.2 ^ab %,32.5 ^cd %,13.9 ^b %

# Same assay, conditions: 0.1%; hatched J2 per well, about 35 eggs per well
Compound,Hatch Day 2,Hatch Day 5,Hatch Day 7
"CC(C)COC(=O)c1ccccc1 [iBB, iso-Butyl benzoate]",6.4 ^abc,7.2 ^bcd,8.2 ^bcd
"CCCCCCOC(=O)c1ccccc1 [nHB, n-Hexyl benzoate]",11.6 ^ab,13.0 ^b,13.0 ^bc
"COC(=O)c1ccccc1Cl [M2CB, Methyl 2-chlorobenzoate]",1.7 ^d,1.7 ^e,2.3 ^e
"COC(=O)c1ccccc1OC [M2MOB, Methyl 2-methoxybenzoate]",3.4 ^cd,8.4 ^bc,13.9 ^bc
